Drawing on patent publication US11174251B2, “Compositions and methods for inhibition of the JAK pathway” (Rigel Pharmaceuticals, Inc., priority 2010, dated 2021), this text covers IC50 for twelve compounds.

SMILES strings stand for the structures. Counter-ions that a name gives are not always drawn.

In this test the target is T1, JAK3 (Homo sapiens, UniProt P52333).
T1 construct: The Ramos B-cell line was acquired from ATCC (ATCC Catalog No. CRL-1596); host or cells: Ramos B-cell line (human)
T1 sequence (P52333 1-1124): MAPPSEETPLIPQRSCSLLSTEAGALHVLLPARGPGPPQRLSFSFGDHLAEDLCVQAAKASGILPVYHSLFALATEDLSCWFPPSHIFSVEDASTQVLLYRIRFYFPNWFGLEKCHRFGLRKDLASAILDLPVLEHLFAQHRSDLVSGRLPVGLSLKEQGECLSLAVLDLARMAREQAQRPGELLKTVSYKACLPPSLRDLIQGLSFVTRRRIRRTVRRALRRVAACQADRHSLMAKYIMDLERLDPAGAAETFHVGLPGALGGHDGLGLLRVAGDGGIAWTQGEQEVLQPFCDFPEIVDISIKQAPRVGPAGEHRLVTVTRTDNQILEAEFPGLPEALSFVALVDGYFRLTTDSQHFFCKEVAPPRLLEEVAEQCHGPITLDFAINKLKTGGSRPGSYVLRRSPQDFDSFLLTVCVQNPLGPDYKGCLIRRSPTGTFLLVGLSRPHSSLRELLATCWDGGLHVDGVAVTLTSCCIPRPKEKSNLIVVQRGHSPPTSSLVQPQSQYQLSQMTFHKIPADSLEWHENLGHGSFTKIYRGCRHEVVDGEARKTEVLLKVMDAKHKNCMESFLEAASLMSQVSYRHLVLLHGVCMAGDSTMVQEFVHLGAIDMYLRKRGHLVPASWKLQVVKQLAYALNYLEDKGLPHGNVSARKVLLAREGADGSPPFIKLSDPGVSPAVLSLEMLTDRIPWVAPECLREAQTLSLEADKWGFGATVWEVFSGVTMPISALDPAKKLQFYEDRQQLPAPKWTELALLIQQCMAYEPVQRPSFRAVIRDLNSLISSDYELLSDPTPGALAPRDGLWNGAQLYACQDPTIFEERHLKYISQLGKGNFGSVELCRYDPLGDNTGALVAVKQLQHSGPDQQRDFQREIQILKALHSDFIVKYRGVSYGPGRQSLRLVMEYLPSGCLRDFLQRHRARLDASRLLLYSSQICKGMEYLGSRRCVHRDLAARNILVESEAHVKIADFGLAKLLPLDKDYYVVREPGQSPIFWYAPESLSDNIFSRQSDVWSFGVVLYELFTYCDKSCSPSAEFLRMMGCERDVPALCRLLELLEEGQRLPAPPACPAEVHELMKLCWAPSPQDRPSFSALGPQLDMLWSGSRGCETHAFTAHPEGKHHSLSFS
Nature of the test: Assay for CD23 expression on Ramos B-cells stimulated by IL-4 (Table IV: ability to inhibit JAK3 activity). Format: cell-based. To be noted: tested under conditions described in Example 3 (so in the source). An excerpt:
One means of assaying for such inhibition is detection of the effect of the 2,4-pyrimidinediamine compounds on the upregulation of downstream gene products. In the Ramos/IL4 assay, B-cells are stimulated with the cytokine Interleukin-4 (IL-4) leading to the activation of the JAK/Stat pathway through phosphorylation of the JAK family kinases, JAK1 and JAK3, which in turn phosphorylate and activate the transcription factor Stat-6. […] To study the effect of inhibitors (for example, the 2,4-substituted pyrimindinediamine compounds described herein) on the JAK1 and JAK3 kinases, human Ramos B cells are stimulated with human IL-4. 20 to 24 hours post stimulation, cells are stained for upregulation of CD23 and analyzed using FACS.
B-cells stimulated with cytokine Interleukin-4 (IL-4) activate the JAK/Stat pathway through phosphorylation of the JAK family kinases, JAK-1 and JAK-3, which in turn phosphorylate and activate the transcription factor Stat-6. […] To study the effect of inhibitors on the JAK family kinases, human Ramos B cells were stimulated with human IL-4 and the surface expression of CD23 was measured.
The day before the experiment, Ramos B-cells were diluted to 3.5×10^5 cells/mL to ensure that they were in a logarithmic growth phase.
Cells were spun down and suspended in RPMI with 5% serum. 5×10^4 cells were used per point in a 96-well tissue culture plate. Cells were pre-incubated with compound or DMSO (Sigma-Aldrich, St. Louis, Mo., Cat No. D2650) vehicle control for 1 hour in a 37° C. incubator. Cells were then stimulated with IL-4 (Peprotech Inc., Rocky Hill, N.J., Cat No. 200-04) for a final concentration of 50 units/mL for 20-24 hours. […] Detection was performed using a BD LSR I System Flow Cytometer, purchased from Becton Dickinson Biosciences of San Jose, Calif.
The compound designations in Table IV are consistent with those of Tables I-II above.

What is called IC50 is the concentration needed to halve the response being measured. Compound `COc1ccc(Nc2ncc(F)c(Nc3cc(F)c4oc(=O)[nH]c4c3)n2)cc1C` [Compound I-180, 5-(2-(4-methoxy-3-methylphenylamino)-5-fluoropyrimidin-4-ylamino)-7-fluorobenzo[d]oxazol-2(3H)-one trifluoroacetate salt] displayed an IC50 below 0.5 µM.

In turn, `COCCOc1ccc(Nc2ncc(C)c(Nc3ccc4oc(=O)[nH]c4c3)n2)c(F)c1OCCOC` [Compound I-77, 5-(2-(2-fluoro-3,4-bis(2-methoxyethoxy)phenylamino)-5-methylpyrimidin-4-ylamino)benzo[d]oxazol-2(3H)-one trifluoroacetate salt] returned an IC50 below 0.5 µM.

`COc1cc(Nc2ncc(F)c(Nc3cc(C)c4oc(=O)[nH]c4c3)n2)cc(C)c1OC` [Compound I-183, 5-(2-(3,4-dimethoxy-5-methylphenylamino)-5-fluoropyrimidin-4-ylamino)-7-methylbenzo[d]oxazol-2(3H)-one trifluoroacetate salt] yielded an IC50 below 0.5 µM.

In the case of `Cc1cc(Nc2ncc(Cl)c(Nc3ccc4oc(=O)[nH]c4c3)n2)cc(N(C)C)c1C` [Compound I-83, 5-(5-chloro-2-(3-(dimethylamino)-4,5-dimethylphenylamino)pyrimidin-4-ylamino)benzo[d]oxazol-2(3H)-one trifluoroacetate salt], the IC50 was below 0.5 µM.

`Cc1cc(Nc2ncc(C(=O)O)c(Nc3ccc4oc(=O)[nH]c4c3)n2)cc(C)c1C` [Compound I-49, 4-(2-Oxo-2,3-dihydro-benzooxazol-5-ylamino)-2-(3,4,5-trimethyl-phenylamino)-pyrimidine-5-carboxylic acid trifluoroacetate salt]: the IC50 is above 10 µM.

`Cc1cnc(Nc2cc(C)c(F)c(C(=O)O)c2)nc1Nc1ccc2oc(=O)[nH]c2c1` [Compound I-155, N2-(3-carboxy-4-fluoro-5-methyl)phenyl-5-methyl-N4-(2-oxo-2,3-dihydro-1,3-benzoxazol-5-yl)-2,4-pyrimidinediamine]: the IC50 fell in the range of 0.5 to 5 µM.

For the compound `COc1ccc(Nc2ncc(C)c(Nc3ccc4oc(=O)[nH]c4c3)n2)c(F)c1` [Compound I-75, 5-(2-(2-fluoro-4-methoxyphenylamino)-5-methylpyrimidin-4-ylamino)benzo[d]oxazol-2(3H)-one trifluoroacetate salt], the IC50 is below 0.5 µM.

As to `O=c1[nH]c2cc(Nc3nc(Nc4ccc(C(F)(F)F)cc4)ncc3Cl)ccc2o1` [Compound I-15, 5-(5-chloro-2-(4-(trifluoromethyl)phenylamino)pyrimidin-4-ylamino)benzo[d]oxazol-2(3H)-one trifluoroacetate salt], the IC50 is below 0.5 µM.

For the compound `CCCNC(=O)c1ccc(Nc2ncc(F)c(Nc3ccc4oc(=O)[nH]c4c3)n2)cc1` [Compound I-160, 4-(5-fluoro-4-(2-oxo-2,3-dihydrobenzo[d]oxazol-5-ylamino)pyrimidin-2-ylamino)-N-propylbenzamide formate salt], the IC50 is below 0.5 µM.

Turning to `Cc1cnc(Nc2cc(C)c(C)c(CO)c2)nc1Nc1ccc2oc(=O)[nH]c2c1` [Compound I-147, N2-(3,4-dimethyl-5-hydroxymethyl)phenyl-5-methyl-N4-(2-oxo-2,3-dihydro-1,3-benzoxazol-5-yl)-2,4-pyrimidinediamine], the IC50 is below 0.5 µM.

Regarding `N#Cc1cccc(Nc2ncc(Cl)c(Nc3ccc4oc(=O)[nH]c4c3)n2)c1F` [Compound I-73, 3-(5-chloro-4-(2-oxo-2,3-dihydrobenzo[d]oxazol-5-ylamino)pyrimidin-2-ylamino)-2-fluorobenzonitrile trifluoroacetate salt], the IC50 is below 0.5 µM.

`CCNc1cc(Nc2ncc(C)c(Nc3ccc4oc(=O)[nH]c4c3)n2)cc(C)c1C` [Compound I-85, 5-(2-(3-(ethylamino)-4,5-dimethylphenylamino)-5-methylpyrimidin-4-ylamino)benzo[d]oxazol-2(3H)-one formate salt]: the IC50 was below 0.5 µM.
